Data from the supplement of paper PMC10307832.

Experiments:
Assay in all cases: relative viability (nuclei count vs DMSO), 5 days (fraction); higher = more cells survive
[1] = compound: C=CCNC1=C2C[C@@H](C)C[C@H](OC)[C@H](O)[C@@H](C)/C=C(\C)[C@H](OC(N)=O)[C@@H](OC)/C=C\C=C(/C)C(=O)NC(=CC1=O)C2=O [17-AAG] + CC(=O)c1c(C)c2cnc(Nc3ccc(N4CCNCC4)cn3)nc2n(C2CCCC2)c1=O [Palbociclib] (partner 0.5 µM)
Summary of the method: (§1)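 After 5 days of treatment, lung cancer cells in 1536-well plates were fixed and stained in a single step (final 0.05% Triton X-100, 1% formaldehyde, 1 ug/ml Hoechst) and their nuclei counted on 4× images. Treatment had been applied by pin tool the day after seeding as one drug alone or as a fixed anchor-drug dose with five library-drug doses (not always all listed) in √10 steps. Relative viability is the nuclei count of treated wells divided by that of vehicle wells, and values are medians of duplicate plates.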

[2] = compound: C=CCNC1=C2C[C@@H](C)C[C@H](OC)[C@H](O)[C@@H](C)/C=C(\C)[C@H](OC(N)=O)[C@@H](OC)/C=C\C=C(/C)C(=O)NC(=CC1=O)C2=O [17-AAG] + CS(=O)(=O)N1CCN(Cc2cc3nc(-c4cccc5[nH]ncc45)nc(N4CCOCC4)c3s2)CC1 [Pictilisib] (partner 1 µM)
Summary of the method: as §1

[3] = compound: C=CCNC1=C2C[C@@H](C)C[C@H](OC)[C@H](O)[C@@H](C)/C=C(\C)[C@H](OC(N)=O)[C@@H](OC)/C=C\C=C(/C)C(=O)NC(=CC1=O)C2=O [17-AAG] + COc1cccc2cc(-c3nc([C@H]4CC[C@H](C(=O)O)CC4)n4ncnc(N)c34)[nH]c12 [OSI-027] (partner 0.5 µM)
Summary of the method: as §1

[4] = compound: C=CCNC1=C2C[C@@H](C)C[C@H](OC)[C@H](O)[C@@H](C)/C=C(\C)[C@H](OC(N)=O)[C@@H](OC)/C=C\C=C(/C)C(=O)NC(=CC1=O)C2=O [17-AAG] + CCNC(=O)c1noc(-c2cc(C(C)C)c(O)cc2O)c1-c1ccc(CN2CCOCC2)cc1 [Luminespib] (partner 0.01 µM)
Summary of the method: as §1

Row | Cell Line | relative viability ([1]; first compound 0.00128 µM) | relative viability ([1]; first compound 0.004048 µM) | relative viability ([1]; first compound 0.0128 µM) | relative viability ([1]; first compound 0.04048 µM) | relative viability ([1]; first compound 0.128 µM) | relative viability ([2]; first compound 0.00128 µM) | relative viability ([2]; first compound 0.004048 µM) | relative viability ([2]; first compound 0.0128 µM) | relative viability ([2]; first compound 0.04048 µM) | relative viability ([2]; first compound 0.128 µM) | relative viability ([3]; first compound 0.00128 µM) | relative viability ([3]; first compound 0.004048 µM) | relative viability ([3]; first compound 0.0128 µM) | relative viability ([3]; first compound 0.04048 µM) | relative viability ([3]; first compound 0.128 µM) | relative viability ([4]; first compound 0.00128 µM) | relative viability ([4]; first compound 0.004048 µM) | relative viability ([4]; first compound 0.0128 µM) | relative viability ([4]; first compound 0.04048 µM) | relative viability ([4]; first compound 0.128 µM)
1 | SK-MES-1 | 0.347 | 0.394 | 0.281 | 0.211 | 0.164 | 0.414 | 0.387 | 0.139 | 0.134 | 0.1 | 0.597 | 0.426 | 0.127 | 0.136 | 0.134 | 0.633 | 0.327 | 0.181 | 0.166 | 0.157
2 | NCI-H838 | 0.234 | 0.209 | 0.133 | 0.14 | 0.129 | 0.498 | 0.306 | 0.174 | 0.157 | 0.132 | 0.408 | 0.369 | 0.246 | 0.147 | 0.124 | 0.192 | 0.196 | 0.151 | 0.157 | 0.12
3 | NCI-H1355 | 0.414 | 0.386 | 0.385 | 0.302 | 0.157 | 0.512 | 0.439 | 0.264 | 0.183 | 0.151 | 0.44 | 0.467 | 0.272 | 0.185 | 0.166 | 0.649 | 0.685 | 0.457 | 0.337 | 0.18
4 | NCI-H1975 | 0.547 | 0.526 | 0.22 | 0.106 | 0.104 | 0.3 | 0.176 | 0.116 | 0.119 | 0.103 | 0.654 | 0.446 | 0.133 | 0.147 | 0.115 | 0.198 | 0.175 | 0.14 | 0.176 | 0.139
